Entries after “also recorded” stand apart in the source; their conditions may differ.
Experiments:
[1] = tested on: SARS-CoV-2 virus (nCoV-2019BetaCoV/Wuhan/WIV04/2019 isolate); assay: microbe, parasite or virus in culture; format: cell-based; conditions: for Copy number of viral genome (MOI = 0.01): MOI 0.01, Vero E6 supernatant; for Copy number of viral genome (MOI = 0.01) / Copy number of viral genome (MOI = 0.05): 48 h, copy number per milliliter; for Copy number of viral genome (MOI = 0.05): MOI 0.05, Vero E6 supernatant; for SI (selectivity index): Example 1, drug pretreatment 1 hour; for EC50: Severe acute respiratory syndrome coronavirus 2, Vero C1008, Example 1, drug pretreatment 1 hour; for Inhibition of SARS-CoV-2 (in words): Example 1, in vitro, Vero E6
[2] = tested on: SARS-CoV-2 virus (nCoV-2019BetaCoV/Wuhan/WIV04/2019 isolate); assay: microbe, parasite or virus in culture; format: cell-based; conditions: for SI (selectivity index): Example 2, no drug pretreatment; for EC50: Severe acute respiratory syndrome coronavirus 2, Vero C1008, Example 2, no drug pretreatment; for Inhibition of SARS-CoV-2 (in words): Example 2, drug added after virus infection of cells
Vero-E6 cells = assay: Drug cytotoxicity on cells, CellTiter-Glo kit; format: cell-based; conditions: for Cell viability (% of vehicle control): Vero-E6, 24 hours
Protocol: (§1) 1.5.1 Vero E6 cell culture: 0.1 ml of 0.25% trypsin, 5 ml of 0.02% EDTA were added to a culture flask full of cells, the digestion was carried out at 37° C. for 5 minutes, then the digestion solution was discarded, the cell culture solution was added and then mixed by pipetting up-down. The cells were subcultured at 1:3, reached confluence within 3 days, formulated into 100,000 cells per ml, inoculated to a 96-well cell culture plate, 0.1 ml per well, and cultured at 37° C., 5% CO2 for 24 hours, and the cells grew into monolayer was used for experiment.
(§2) 1.5.2 Experiment of Drug Cytotoxicity on Cells:
(§3) The detection of drug cytotoxicity was determined using CellTiter-Glo kit (Promega). Specific steps were as follows:
(§4) (1) 1×10^4 Vero-E6 cells were inoculated in a 96-well plate and cultured at 37° C. for 8 hours.
(§5) (2) The stock solution of drug was diluted with MEM medium containing 2% FBS to the desired concentration, the original medium in the 96-well plate was discarded, and 100 μL of the drug-containing MEM medium was taken and added to the corresponding wells, so that the final concentrations of drug in the wells were those shown in Tables 1 to 3, respectively, and three replicate wells were made for each concentration. At the same time, a vehicle control (adding DMSO or PBS, and 2% FBS-containing MEM medium without drug to the cell wells) and a blank control (adding DMSO and 2% FBS-containing MEM medium to the wells without cells) were set. After the addition of drug, the cells were incubated at 37° C. for 24 hours.
(§6) (3) 100 μL of CellTiter-Glo solution (Promega) was added to the wells to be tested, and mixed by shaking for 2 min to fully lyse the cells, incubated at room temperature for 10 minutes, and readings of chemiluminescence signals […] were obtained on a microplate reader (purchased from Molecular Devices, model: SpectraMax M5). The cell viability was calculated by taking the readings into the following formula:
(§7) Cell viability (%)=(A(drug treatment group)−A(blank control))/(A(vehicle control)−A(blank control))×100%
(§8) where A represented the reading on the microplate reader.

[3] = Drug cytotoxicity on cells, CellTiter-Glo kit; format: cell-based; conditions: African green monkey, Vero-E6 cells, 24 hours
Protocol: as §1, §2, §3, §4, §5, §6, §7, §8

[4] = tested on: SARS-CoV-2 virus (nCoV-2019BetaCoV/Wuhan/WIV04/2019 isolate); assay: EC50 by nucleic acid quantification on Vero cells (Example 3), quantitative RT-PCR; format: cell-based
SARS-CoV-2 virus = conditions: previous studies, Wang et al., 2020; cited from earlier work
[5] = MOI 0.01, Vero E6, read-out: EC50
[6] = MOI 0.05, Vero E6, read-out: EC50

CCC(CC)COC(=O)[C@H](C)N[P@](=O)(OC[C@H]1O[C@@](C#N)(c2ccc3c(N)ncnn23)[C@H](O)[C@@H]1O)Oc1ccccc1 [Remdesivir]
Copy number of viral genome (MOI = 0.01) ([1]; 0.12 μM): 3900176000
Copy number of viral genome (MOI = 0.05) ([1]; 0.12 μM): 11594175000
Copy number of viral genome (MOI = 0.01) ([1]; 0.37 μM): 1901120292
Copy number of viral genome (MOI = 0.05) ([1]; 0.37 μM): 9405568167
Copy number of viral genome (MOI = 0.01) ([1]; 1.11 μM): 19898611
Copy number of viral genome (MOI = 0.05) ([1]; 1.11 μM): 545157271
Copy number of viral genome (MOI = 0.01) ([1]; 3.33 μM): 243294
Copy number of viral genome (MOI = 0.05) ([1]; 3.33 μM): 13188656
Copy number of viral genome (MOI = 0.01) ([1]; 10 μM): 563645
Copy number of viral genome (MOI = 0.05) ([1]; 10 μM): 3230111
Copy number of viral genome (MOI = 0.01) ([1]; 30 μM): 975616
Copy number of viral genome (MOI = 0.05) ([1]; 30 μM): 2594526
SI (selectivity index) ([1]; MOI 0.01): 534.33
SI (selectivity index) ([1]; MOI 0.05): 271.69
EC50 ([1]; MOI 0.01, Vero E6): 0.3 µM
EC50 ([1]; MOI 0.05, Vero E6): 0.59 µM
SI (selectivity index) ([2]; MOI 0.01): 696.96
SI (selectivity index) ([2]; MOI 0.05): 258.55
EC50 ([2]; MOI 0.01, Vero E6): 0.23 µM
EC50 ([2]; MOI 0.05, Vero E6): 0.62 µM
Cell viability (% of vehicle control) (Vero-E6 cells; 3.13 μM): 97.16 % of vehicle control
Cell viability (% of vehicle control) (Vero-E6 cells; 6.25 μM): 99.17 % of vehicle control
Cell viability (% of vehicle control) (Vero-E6 cells; 12.5 μM): 99.62 % of vehicle control
Cell viability (% of vehicle control) (Vero-E6 cells; 25 μM): 95.71 % of vehicle control
Cell viability (% of vehicle control) (Vero-E6 cells; 50 μM): 90.20 % of vehicle control
Cell viability (% of vehicle control) (Vero-E6 cells; 100 μM): 70.09 % of vehicle control
Cell viability (% of vehicle control) (Vero-E6 cells; 200 μM): 40.05 % of vehicle control
CC50 at 24 h [3]: 160 µM

COc1ccc2cc1Oc1ccc(cc1)C[C@H]1c3cc(c(OC)cc3CCN1C)Oc1c(OC)c(OC)cc3c1[C@H](C2)N(C)CC3 [Tetrandrine, 6,6′,7,12-tetramethoxy-2,2′-dimethylberbamine]
Copy number of viral genome (MOI = 0.01) ([1]; 0.625 μM): 3357508000
Copy number of viral genome (MOI = 0.05) ([1]; 0.625 μM): 10669558667
Copy number of viral genome (MOI = 0.01) ([1]; 1.25 μM): 3336005167
Copy number of viral genome (MOI = 0.05) ([1]; 1.25 μM): 7198143667
Copy number of viral genome (MOI = 0.01) ([1]; 2.5 μM): 1707286250
Copy number of viral genome (MOI = 0.05) ([1]; 2.5 μM): 7118504000
Copy number of viral genome (MOI = 0.01) ([1]; 5 μM): 373861479
Copy number of viral genome (MOI = 0.05) ([1]; 5 μM): 2477488500
Copy number of viral genome (MOI = 0.01) ([1]; 10 μM): 1456943
Copy number of viral genome (MOI = 0.05) ([1]; 10 μM): 8161310
Copy number of viral genome (MOI = 0.01) ([1]; 20 μM): 1323393
Copy number of viral genome (MOI = 0.05) ([1]; 20 μM): 4092752
SI (selectivity index) ([1]; MOI 0.01): 14.33
SI (selectivity index) ([1]; MOI 0.05): 8.51
Inhibition of SARS-CoV-2 (in words) [1]: obvious inhibitory effects; also recorded: inhibitory activity
EC50 [1, 5]: 1.71 µM
EC50 [1, 6]: 2.88 µM
Inhibition of SARS-CoV-2 (in words) ([4]; Example 3, cellular level, Vero cells): inhibitory effect
EC50 ([4]; Severe acute respiratory syndrome coronavirus 2, 48 h, Example 3, Vero cells, viral load 100 TCID50, two days after infection): 8.99 µM
Inhibition of SARS-CoV-2 (in words) [2]: inhibitory activity
Inhibition of SARS-CoV-2 (in words) ([2]; listed as tetrandrine): obvious inhibitory effects
SI (selectivity index) ([2]; MOI 0.01): 15.22
SI (selectivity index) ([2]; MOI 0.05): 12.51
EC50 [2, 5]: 1.61 µM
EC50 [2, 6]: 1.95 µM
Cell viability (% of vehicle control) (Vero-E6 cells; 1.56 μM): 94.81 % of vehicle control
Cell viability (% of vehicle control) (Vero-E6 cells; 3.13 μM): 97.38 % of vehicle control
Cell viability (% of vehicle control) (Vero-E6 cells; 6.25 μM): 91.24 % of vehicle control
Cell viability (% of vehicle control) (Vero-E6 cells; 12.5 μM): 78.14 % of vehicle control
Cell viability (% of vehicle control) (Vero-E6 cells; 25 μM): 58.25 % of vehicle control
Cell viability (% of vehicle control) (Vero-E6 cells; 50 μM): 0.28 % of vehicle control
Cell viability (% of vehicle control) (Vero-E6 cells; 100 μM): 0.96 % of vehicle control
Toxicity on Vero E6 cells (in words) (Vero-E6 cells; all tested concentrations): good safety for the test cells in vitro
CC50 at 24 h [3]: 24.5 µM

CCN(CC)CCCC(C)Nc1ccnc2cc(Cl)ccc12 (centres unmarked) [Chloroquine phosphate, chloroquine phosphate]
Copy number of viral genome (MOI = 0.01) ([1]; 0.21 μM): 3451032833
Copy number of viral genome (MOI = 0.05) ([1]; 0.21 μM): 5871676583
Copy number of viral genome (MOI = 0.01) ([1]; 0.62 μM): 2407772083
Copy number of viral genome (MOI = 0.05) ([1]; 0.62 μM): 5663562000
Copy number of viral genome (MOI = 0.01) ([1]; 1.85 μM): 1500455250
Copy number of viral genome (MOI = 0.05) ([1]; 1.85 μM): 4521430250
Copy number of viral genome (MOI = 0.01) ([1]; 5.56 μM): 692991541
Copy number of viral genome (MOI = 0.05) ([1]; 5.56 μM): 1814432458
Copy number of viral genome (MOI = 0.01) ([1]; 16.67 μM): 11907226
Copy number of viral genome (MOI = 0.05) ([1]; 16.67 μM): 52973263
Copy number of viral genome (MOI = 0.01) ([1]; 50 μM): 1019575
Copy number of viral genome (MOI = 0.05) ([1]; 50 μM): 1914748
Inhibition of SARS-CoV-2 (in words) [1]: obvious inhibitory effects; also recorded: inhibitory activity
EC50 [1, 5]: 1.54 µM
EC50 [1, 6]: 3.77 µM
Inhibition of replication of SARS-CoV-2 virus (in words) (SARS-CoV-2 virus): can effectively inhibit the replication
Inhibition of SARS-CoV-2 (in words) [2]: obvious inhibitory effects; also recorded: inhibitory activity
EC50 [2, 5]: 4.52 µM
EC50 [2, 6]: 3.63 µM
Cell viability (% of vehicle control) (Vero-E6 cells; 3.70 μM): 93.26 % of vehicle control
Cell viability (% of vehicle control) (Vero-E6 cells; 11.11 μM): 90.60 % of vehicle control
Cell viability (% of vehicle control) (Vero-E6 cells; 33.33 μM): 72.67 % of vehicle control
Cell viability (% of vehicle control) (Vero-E6 cells; 66.67 μM): 68.35 % of vehicle control
Cell viability (% of vehicle control) (Vero-E6 cells; 100 μM): 44.84 % of vehicle control
Cell viability (% of vehicle control) (Vero-E6 cells; 200 μM): 41.01 % of vehicle control
Cell viability (% of vehicle control) (Vero-E6 cells; 300 μM): 0.63 % of vehicle control
CC50 at 24 h ([3]; unit inferred): 92.9 µM
